In patent US20240335385A1, “IONIZABLE AMINE LIPIDS AND LIPID NANOPARTICLES” (Beam Therapeutics Inc., priority 2021, published 2024):

Tests used:
ALAS1 target site = experiment: Base editing in liver by LNP carrying adenine base editor mRNA and sgRNA, targeted deep sequencing; assay type: in vivo; settings: Balb/C mice, tail vein, 0.15 mg/kg total RNA (ABE mRNA:sgRNA 1:1), four to six days post-dose
Protocol: Exemplary LNP preparations were selected to determine each preparation's ability to perform base editing in a Balb/C mouse model as described herein.
Lipid nanoparticle components were dissolved in 100% ethanol at specified lipid component molar ratios. mRNA encoding an adenine base editor and a chemically-modified sgRNA was dissolved at a mass ratio of 1:1 in 50 mM citrate, pH 4.0, resulting in a concentration of NA cargo of approximately 0.1 mg/mL.
LNP preparations were formulated with molar ratios of 47.5% Ionizable Lipid:40% Cholesterol:2.5% PEG2000-DMG:10% DSPC total lipid to NA mass ratio of 6 to 12. […]
A 3:1 ratio of aqueous to organic solvent was maintained during mixing using differential flow rates. […] After this initial dialysis, each individual LNP preparation was characterized via dynamic light scattering (DLS) to measure size and polydispersity. pKa of a subpopulation of LNP preparations was measured via TNS assay. […]
Age-matched mice were also used to administer vehicle (1×TBS) via tail vein injection as a control. […] Base editing is determined by performing targeted deep sequencing analysis at the ALAS1 target site using extracted genomic DNA. […] Library size and concentration was confirmed by Fragment Analyzer (Agilent) and analyzed for […] using an Illumina HiSeq.

[1] = LNP hydrodynamic diameter and polydispersity index by dynamic light scattering (DLS); assay type: physicochemical; settings: LNP of 47.5% Ionizable Lipid:40% cholesterol:2.5% PEG-2000 DMG:10% DPSC, N/P ratio 4-8
Protocol: (§1) LNPs were prepared with 47.5% Ionizable Lipid (e.g., a compound provided herein):40% cholesterol:2.5% PEG-2000 DMG:10% DPSC and an N/P ratio range of 4-8. LNPs were formed by microfluidic mixing of the lipid and NA solutions using a Precision Nanosystems NanoAssemblr Spark or Benchtop series Instruments, according to the manufacturer's protocol. A ratio of aqueous to organic solvent of approximately 2:1 or 3:1 was maintained during mixing using differential flow rates. After mixing, LNPs were collected, diluted in phosphate buffer saline (PBS) or Tris-buffered saline (TBS) (approximately 1:1 v/v). Further buffer exchange was conducted using dialysis in PBS or TBS at 4° C. for 4 to 24 hours against a 20 kDa filter. After this initial dialysis, each individual LNP preparation was characterized via dynamic light scattering (DLS) to measure the size (e.g., diameter) and polydispersity. LNPs falling within specific diameter and polydispersity ranges were pooled, and further dialyzed against PBS or TBS at 4° C. for 1 to 4 hours against a 100 kDa dialysis cassette. After the second dialysis, LNPs were sterile filtered using 0.22 μm filter and stored at 4° C. for further use.
LNP hydrodynamic diameter and polydispersity index (PDI) were measured using high throughput dynamic light scattering (DLS) (Stunner, Unchained Labs). LNPs were diluted 1×TBS or PBS to an appropriate concentration and analyzed.

[2] = RNA encapsulation efficiency of LNPs by Ribogreen assay; assay type: physicochemical; settings: LNP of 47.5% Ionizable Lipid:40% cholesterol:2.5% PEG-2000 DMG:10% DPSC, N/P ratio 4-8
Protocol: as §1
RNA concentration and encapsulation efficiency were determined by Ribogreen assay (BioTek Synergy LX plate reader).

| SMILES | base editing observed in liver (ALAS1 target site) [%] | Mean Diameter (nm) [1] [nm] | Mean PDI [1] | Mean Encapsulation Efficiency (%) [2] [%] |
| --- | --- | --- | --- | --- |
| CC/C=C\CCCCOC(CCC(=O)OCCCCC(CCCCOC(=O)CCCCCCC/C=C\C/C=C\CCCCC)OC(=O)OCC1CCCN(CC)C1)OCCCC/C=C\CC (centres unmarked) [Example 7-41, 9-((4,4-bis(((Z)-oct-5-en-1-yl)oxy)butanoyl)oxy)-5-((((1-ethylpiperidin-3-yl)methoxy)carbonyl)oxy)nonyl (9Z,12Z)-octadeca-9,12-dienoate] | 1.7 | 80.3 | 0.11 | 84.3 |
| CC/C=C\CCCCOC(CCC(=O)OCCCC(CCCOC(=O)CCCCCCC/C=C\C/C=C\CCCCC)OC(=O)OCC1CCCN(CC)C1)OCCCC/C=C\CC (centres unmarked) [Example 7-21, 7-((4,4-bis(((Z)-oct-5-en-1-yl)oxy)butanoyl)oxy)-4-((((1-ethylpiperidin-3-yl)methoxy)carbonyl)oxy)heptyl (9Z,12Z)-octadeca-9,12-dienoate] | 34.1 | 90.0 | 0.11 | 86.4 |
